Assay results reported in patent US20260041629A1, “Methods and Systems to Reduce Injury in Treated Tissues” (MileHigh Repro Solutions, LLC, priority 2022, published 2026).

Assays:
ewe cervices = assay: Experiment 1: in vitro efficacy of solution, AI rod passage through excised cervical tracts; settings: ¼ cc rod, tracts treated 1 hour, * = statistically significant improvement over control
Procedure: Ewe and bison cervical tracts were obtained to assess local responses in living tissue thereby modeling in vivo response to a solution. Tracts were treated for 1 hour with the respective solution using an absorbent matrix applicator, then ¼ cc AI rods were passed through the cervix, mimicking trans-cervical artificial insemination. A total of […] tracts were utilized with each of 13 treatments tested in 11 replicates. The estimated number of rings passed was recorded. Post-treatment tracts were dissected, then length and cervical anatomy were recorded, and relationships between cervical structure, ring number and position were and analyzed. Ring passage data was transformed into a percentage of rings passed to normalize the data and to allow comparison across an undefined variety of tissues, breeds, ages, and other etiological differences. A paired T-test indicated trends in increased passage of AI rod (P=0.064) when treating the cervix versus control.

boar sperm = assay: Experiment 2: compatibility with sperm in vitro (motility by computer assisted sperm analyzer); assay type: cell-based; settings: exposure 3 hours, 37° C
Procedure: A successful cervical softening agent should be safe for a mammal's tissues and also for sperm used to inseminate the mammal. It was anticipated that the cervical tract and the AI rod will each retain a residue of the solution treatment which may then combine with the semen inside the cervix or uterus. Therefore, experiments were performed using sperm samples from boars to evaluate the toxicity of each proposed treatment and blends.
Extended boar sperm doses (28×10^6/ml; 1 ml) were incubated with each of the miscible solutions at 3 concentrations, 0.1 μL, 0.5 μL, or 1 μL per 1 mL extended sperm, then the sperm with the solution were incubated for 3 hours at 37° C. Motility characteristics were measured via computer assisted sperm analyzer. This experiment was replicated 4 times.

- Sperm motility, motile percentage of the total number of spermatozoa (boar sperm; dose 0.1 μL in 1 mL sperm): 90.7%
- Sperm motility, motile percentage of the total number of spermatozoa (boar sperm; dose 0.5 μL in 1 mL sperm): 93.3%
- Sperm motility, motile percentage of the total number of spermatozoa (boar sperm; dose 1 μL in 1 mL sperm): 91.8%
SMILES: CCCC[N+]1(C)[C@@H]2C[C@@H](OC(=O)[C@H](CO)c3ccccc3)C[C@H]1[C@@H]1O[C@@H]12 (stereo partly shown) [Extract F, hyoscine butylbromide]
- Avg. % Cervical rings passed (ewe cervices): 50.02* %
